In patent US7320993B1, “Aryl-substituted pyridylalkane, alkene, and alkine carboxamides useful as cytostatic useful as cytostatic and immuosuppressive agents” (Astellas Deutschland GmbH, priority 1997, dated 2008):
Read-outs that look alike come from different tables or passages of the source.

Assays:
[1] = test system: freshly isolated lymphocytes; experiment: Immunosuppressing activity on freshly isolated spleen lymphocytes (flow cytometry, vital cells); format: cell-based; conditions: Lymphocyte, 48 h; Swiss mouse spleen lymphocytes, 2 days incubation, percentage of vital cells by flow-through cytometer
Excerpt: Many anti-tumor agents have not only a cytotoxic effect on tumor cells, but also on the blood cell system. This leads to a weakening of the immune defense, which can, in turn, be specifically employed to suppress the rejection reaction after an organ transplantation for example. Also use of the main compounds, optionally in combination with other immunological diseases (for example, psoriasis or autoimmune diseases) seems likely. In order to test the possibility for a therapeutic use in illnesses of this type, the substance activity was tested on freshly isolated lymphocytes as follows:
The spleen of a Swiss mouse served as a lymphocyte source. The lymphocyte population was isolated from the spleen cell […] suspension over a ficoll gradient and taken up in IMEM-ZO culture medium with 0.1% dextran 70,000 and 2% foetal calf serum. The cells were plated at a density of ca. 500,000 cells/well/ml in a 12-well plate, 1 ml doubly concentrated test substance solution was pipetted per well and this was subsequently incubated in a tissue culture incubator at 37° C. and 5% CO2. After 2 days, a 1 ml-aliquot with 5 μl of the fluorescent dye solutions propidium iodide (8 mg/ml) and 3,3′-dihexyloxacarbocyanin iodide (40 μg/ml) each was added per well, and incubated for 3 minutes at room temperature. Subsequently, 10,000 cells per each sample were measured on a flow-through cytometer and the percentage amount of vital cells in the population was determined. By means of the dose-response curves, IC50-values were calculated which were also employed in the following Tables for the characterization of the individual substances: […]

THP-1 cells = experiment: Growth inhibition of THP-1 human monocytic leukemia cells (WST-1 reagent); format: cell-based
Description: (§1) The tumor growth inhibiting activity of the substances was determined on human tumor cells in standardized in vitro test systems. In the screening tests, the substances gave IC50-values in a concentration range of 0.1 nM to 10 μM.
THP-1 cells derived from a human monocytic leukemia plated at a density of 200,000 cells/ml in 96-well plastic dishes. Cultivation occurred in RPMI 1640 nutrient medium with 10% foetal calf serum (FCS) in a tissue culture incubator with a gas mixture of 5% CO2 and 95% air at a temperature of 37° C. For the individual concentrations and the controls without test substances as well as for the background with nutrient medium but without cells, three-fold batches were done for each. After four days of substance incubation 20 μl WST-1 reagent (Boehringer Mannheim) was respectfully pipetted in each individual well. After 30 to 60 minute incubation in the tissue culture incubator at 37° C. and 5% CO2, the light extinction was measured in an ELISA reader at 450 nm wave length. The backgrounds were each subtracted from the typical measured valves. The IC50-values (defined as that concentration in which the cell growth was inhibited by 50%) was taken from the dose-response curves and given as a comparative measurement for the activity of the test compounds.

HepG2 cells = experiment: Growth inhibition of HepG2 human liver carcinoma cells (sulforhodamin-B method); format: cell-based
Description: as §1
(§2) HepG2 cells derived from a human liver carcinoma plated at a density of 20,006 cells/ml in 12-well plastic dishes. Cultivation occurred in Richters IMEM-ZO nutrient medium with 5% foetal calf serum (FCS) in a tissue culture incubator with a gas mixture of 5% CO2 and 95% air at a temperature of 37° C. One day after plating, the culture medium was aspirated from the cells and replaced by fresh medium which contained the respective concentrations of the test substances. For the individual concentrations and the controls without test substances, three-fold batches were done for each. Three days after the beginning of treatment, the medium was again renewed with the test compounds. After six days of substance incubation, the test was ended and the protein amount in the individual wells was determined with the sulforhodamin-B-method (according to P. Skehan et al.: New Colorimetric Cytotoxicity Assay for Anticancer-Drug Screening. J. Natl. Cancer Inst. 82: 1107-1112, 1990). The IC50-values (defined as that concentration in which the cell growth was inhibited by 50%) was taken from the dose-response curves and given as a comparative measurement for the activity of the test compounds.

A549 cells = experiment: Growth inhibition of A549 human lung carcinoma cells (sulforhodamin-B method); format: cell-based
Description: as §1
as §2, with “A549” for “HepG2”, “lung” for “liver”, “20,000” for “20,006”, “four” for “six”

[2] = 96 h, A549 cells, four days of substance incubation, protein amount by sulforhodamin-B, read-out: IC50-value
[3] = 144 h, HepG2 cells, six days of substance incubation, protein amount by sulforhodamin-B, read-out: IC50-value

Question: Which melting point does the source give for `O=C(C=Cc1cccnc1)NCCCCCCNC(=O)N1c2ccccc2CCc2ccccc21` [Substance 295, N-[6-(10,11-dihydro-dibenzo[b,f]azepin-5-yl-carbonylamino)-hexyl]-3-pyridin-3-yl-acrylamide] here?
Answer: 97 to 99 °C

Question: Which melting point does the source give for `O=C(C=Cc1cccnc1)NCCCCCCNC(=O)N(c1ccccc1)c1ccccc1` [Substance 270, N-[6-(3,3-diphenyl-ureido)-hexyl]-3-pyridin-3-yl-acrylamide] here?
Answer: 105 to 107 °C

Question: With `O=C(C=Cc1cccnc1)NCCCCC=C(c1ccccc1)c1ccccc1` [Substance 120, N-(6,6-diphenyl-hex-5-enyl)-3-pyridin-3-yl-acrylamide] as the molecule, how does the melting point read?
Answer: 120 to 121 °C

Question: And the IC50 [1]?
Answer: 0.5 nM

Question: And the IC50 (THP-1 cells; 96 h, THP-1 cells, four days of substance incubation, WST-1, extinction at 450 nm, read-out: IC50-value)?
Answer: 0.2 nM

Question: What about the IC50 (THP-1 cells; THP-1, monocytic leukemia, methods of point 1, read-out: IC50-values) of the same molecule?
Answer: 0.2 nM

Question: What about the IC50 (HepG2 cells; HepG2, hepatocelluar carcinoma, methods of point 1, read-out: IC50-values) of the same molecule?
Answer: 0.5 nM

Question: And the IC50 (A549 cells; A549, lung carcinoma, methods of point 1, read-out: IC50-values)?
Answer: 2 nM

Question: Which results are given for `O=C(C=Cc1cccnc1)NCCCCNC(=O)C(c1ccccc1)c1ccccc1` [Substance 247, N-(4-diphenylacetylamino-butyl)-3-pyridin-3-yl-acrylamide]?
Answer: melting point: 171 to 172 °C; IC50 [1]: 80 nM; IC50 (A549 cells; [2]): 2000 nM

Question: For `O=C(C=Cc1cccnc1)NCCCCNC(=O)[C@@H]1C[C@H]1c1ccccc1` (relative stereo) [Substance 250, N-[4-(trans-2-phenyl-cyclopropyl-carbonylamino)-butyl]-3-pyridin-3-yl-acrylamide], which melting point is on record?
Answer: 194 to 196 °C

Question: With `O=C(C=Cc1cccnc1)NCCCCCC(O)(c1ccccc1)c1ccccc1` [Substance 31, N-(6-hydroxy-6,6-diphenyl-hexyl)-3-pyridin-3-yl-acrylamide] as the molecule, how does the melting point read?
Answer: 145 to 147 °C

Question: Which melting point does the source give for `O=C(C=Cc1cccnc1)NCCCCNC(=O)N(c1ccccc1)c1ccccc1` [Substance 268, N-[4-(3,3-diphenyl-ureido)-butyl]-3-pyridin-3-yl-acrylamide] here?
Answer: 123 to 125 °C

Question: Which results are given for `O=C(C=Cc1cccnc1)NCCCCn1cnc(-c2ccccc2)c1-c1ccccc1` [Substance 63, N-[4-(4,5-diphenyl-imidazol-1-yl)-butyl]-3-pyridin-3-yl-acrylamide]?
Answer: melting point: 183 °C; IC50 [1]: 0.3 nM; IC50 (HepG2 cells; [3]): 8 nM

Question: For `O=C(C=Cc1cccnc1)NCCCCCCCc1ccccc1` [Substance 3, N-(7-phenyl-heptyl)-3-pyridin-3-yl-acrylamide], which melting point is on record?
Answer: 61 to 63 °C

Question: What about the IC50 (A549 cells; [2]) of the same molecule?
Answer: 8000 nM

Question: Which melting point does the source give for `O=C(C=Cc1cccnc1)NCCCCCCCC(O)(c1ccccc1)c1ccccc1` [Substance 41, N-(8-hydroxy-8,8-diphenyloctyl)-3-pyridin-3-yl-acrylamide] here?
Answer: 139 to 140 °C

Question: Which melting point does the source give for `Cc1ccc(S(=O)(=O)NCCCCCCNC(=O)C=Cc2cccnc2)cc1` [Substance 310, 3-Pyridin-3-yl-N-[6-(tosylamino)-hexyl]-acrylamide] here?
Answer: 91 to 93 °C

Question: With `O=C(C=Cc1cccnc1)NCCCCNC(c1ccccc1)c1ccccc1` [Substance 187, N-[4-(benzhydryl-amino)-butyl]-3-pyridin-3-yl-acrylamide] as the molecule, how does the melting point read?
Answer: 101 to 102 °C

Question: What about the IC50 (HepG2 cells; [3]) of the same molecule?
Answer: 200 nM

Question: And the IC50 (A549 cells; [2])?
Answer: 400 nM

Question: What does the source list for `CN(CCCCNC(=O)C=Cc1cccnc1)CCN(C)C(c1ccccc1)c1ccccc1` [Substance 193, N-(4-{[2-(benzhydryl-methyl-amino)-ethyl]-methyl-amino}-butyl)-3-pyridin-3-yl-acrylamide]?
Answer: melting point: 89 to 91 °C; IC50 (A549 cells; [2]): 1000 nM

Question: For `O=C(C=Cc1cccnc1)NCCCCN1CCc2ccccc2C(c2ccccc2)C1` (centres unmarked) [Substance 207, N-[4-(1-phenyl-1,2,4,5-tetrahydrobenzo[d]azepin-3-yl)-butyl]-3-pyridin-3-yl-acrylamide], which melting point is on record?
Answer: 92 to 94 °C

Question: Which melting point does the source give for `O=C(C=Cc1cccnc1)NCCCCC(O)(c1ccccc1)c1ccccc1` [Substance 27, N-(5-hydroxy-5,5-diphenyl-pentyl)-3-pyridin-3-yl-acrylamide] here?
Answer: 157 to 159 °C

Question: What about the IC50 (HepG2 cells; [3]) of the same molecule?
Answer: 40 nM
